From patent US8895695B2, “Template-fixed beta-hairpin peptidomimetics with CXCR4 antagonizing activity” (priority 2003, dated 2014) come the findings set out here.

Bridge positions count the residues as written; N and C are the ends. Square brackets hold non-standard residues; d marks the D form. Peptide text beside a SMILES is read from it. 2Nal = N[C@@H](Cc1ccc2ccccc2c1)C(=O)O; Cit = NC(=O)NCCC[C@H](N)C(=O)O

A short description of data set [1]: Cytotoxicity assay (MTT reduction), HELA cells.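 Further: MTT reduction read as absorbance at 595 nm, blank-corrected and expressed as percent growth relative to the time-zero cell reading, triplicate wells per concentration.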 Conditions: human, HELA cells (Acc57).
The next data set deals with CXCR4 (Homo sapiens, UniProt P61073). The data set can be described thus: Ca2+-assay method 1: CXCR4-antagonizing activity. More on the design: expressed in transfected cells. It counts as cell-based. Conditions: method 1 (Ex. 1-53), CXCR4 transfected pre-B cells, Fura-2; read-out: IC50 (nM) Ca^2+ assay. The protocol:
2.2. Ca^2+-Assay: CXCR4-Antagonizing Activity of the Peptides.
The cells were washed free from Fura-2-AM with a platelet centrifuge and resuspended in 800 μl MSB containing 5 mM D-Glucose. The peptides to be administered were diluted to a 100 fold end concentration in MSB/0.2% PPL, and 8 μl were injected. […] Measurements were done under continuous stirring at 37° C. The signal intension was calibrated with 3 mM CaCl2/[…] lonomycin (maximal fura-2-acetoxymethylester saturation) and 10 μM MnCl2 (minimal Fura-2-acetoxymethylester saturation) and [Ca^2+]i-changes are presented in % fora-2-acetoxymethylester saturation. The rate of [Ca^2+]i-changes was calculated on the basis of the initial [Ca^2+]i-changes and plotted in dependence of chemokine concentration to obtain a sigmoidal curve and to determine the IC50 values.
Osmolarity: 310 mOsm adjusted with NaOH or HCl, adjusted with H2O or PBS.
MSB plus: 5 mM D-glucose in MSB (50 mg/50 mL).
Fura 2-acetoxymethylester: 1 mM stock solution in dimethylsulfoxide.

For data set [2], the system named is 'CCR5' cells / Hut/4-3 cells co-cultivation. The data set can be described thus: FIGS-Assay. It counts as cell-based. Conditions: 200 nM peptide, 48 hours of co-cultivation. The protocol:
The assay was performed according to ref. 5, below. Stock dilutions of the peptides (10 mM) were prepared by dissolving in 10 mM Tris-HCl at room temperature. Stock solutions were kept at +4° C., light protected. Working dilutions were prepared extemporaneously by serial dilution in Phosphate Buffered Saline (PBS) and added in a final volume of 10 μl directly to the cell cultures. After 48 hours of co-cultivation the cultures were rinsed with PBS and then exposed to glutaraldehyde/formaldehyde (0.2%/2%) in PBS for five minutes. For photometric quantification the fixed cultures were subsequently incubated with ortho-nitro-phenyl-galactopyranoside (ONPG) as a β-galactosidase substrate, which was enzymatically converted into the chromophore ortho-nitrophenol (ONP). The read out is directly obtained by measuring optical density of wells at 405 nm in an iEMS 96well-plate reader.
All fine chemicals came from Merck (Darmstadt, Germany).

Data set [3] deals with human red blood cells (hRBC). The data set can be described thus: Hemolysis. It counts as cell-based. The method, boiled down: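 Washed fresh human erythrocytes (20% v/v, about 0.9×10^9 cells/ml final) incubated with peptide at 100 μM for 1 h at 37° C. Supernatant diluted 20-fold and OD540 read. Percent hemolysis relative to 0.1% Triton X-100 in H2O (100%), with PBS alone as 0%.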

A further data set in a line: in vitro. The note with it: human, HELA cells (Acc57).

CXCR4, sequence (P61073 whole entry): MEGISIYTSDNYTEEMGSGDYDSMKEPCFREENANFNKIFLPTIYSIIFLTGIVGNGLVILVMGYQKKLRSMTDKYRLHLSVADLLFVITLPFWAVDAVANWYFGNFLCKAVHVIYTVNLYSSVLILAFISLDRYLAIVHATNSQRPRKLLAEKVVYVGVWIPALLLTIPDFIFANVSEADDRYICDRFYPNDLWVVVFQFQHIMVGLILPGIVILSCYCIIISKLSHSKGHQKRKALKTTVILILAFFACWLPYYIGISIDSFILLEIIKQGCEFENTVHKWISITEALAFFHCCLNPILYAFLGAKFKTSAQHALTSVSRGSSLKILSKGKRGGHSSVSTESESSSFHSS

Broadly, the CC50 is the concentration giving 50% cytotoxicity. Read a high CC50 as lower toxicity to the cells. The IC50 is the midpoint of a concentration-inhibition curve. Take `CC(C)[C@@H]1NC(=O)[C@H](CCCNC(=N)N)NC(=O)[C@@H]2CSSC[C@H](NC(=O)[C@H](Cc3ccc4ccccc4c3)NC(=O)[C@H](CCCNC(=N)N)NC(=O)[C@H](CCCNC(=N)N)NC(=O)CNC1=O)C(=O)N[C@@H](Cc1ccc(O)cc1)C(=O)N[C@@H](CCCNC(N)=O)C(=O)N[C@@H](CCCCN)C(=O)N1CCC[C@@H]1C(=O)N1CCC[C@H]1C(=O)N[C@@H](Cc1ccc(O)cc1)C(=O)N[C@@H](CCCNC(=N)N)C(=O)N[C@@H](CCCNC(N)=O)C(=O)N2` [compound 53] (cyclo(YR[Cit]CRVGRR[2Nal]CY[Cit]K[dP]P); disulfide 4-11): half-maximal cytotoxicity in data set [1] (CC50 at 48 h) was put at 86 µM. The IC50 at CXCR4 was 57.8 nM. Also, the “FIGS % inhibition at 200 nM” value in data set [2] turned out to be 91.8%. Moreover, in data set [3], the Hemolysis at 100 μM worked out at 0.2%.
For the compound `CC(C)[C@@H]1NC(=O)[C@H](CCCNC(N)=O)NC(=O)[C@H](CCCNC(=N)N)NC(=O)[C@H](Cc2ccc(O)cc2)NC(=O)[C@@H]2CCCN2C(=O)[C@H]2CCCN2C(=O)[C@H](CCCCN)NC(=O)[C@H](CCCNC(N)=O)NC(=O)[C@H](Cc2ccc(O)cc2)NC(=O)[C@H](C(C)C)NC(=O)[C@H](Cc2ccc3ccccc3c2)NC(=O)[C@H](CCCNC(=N)N)NC(=O)[C@H](CCCNC(=N)N)NC(=O)[C@H](CCCNC(=N)N)NC1=O` [Ex. 6] (cyclo(YR[Cit]VRRR[2Nal]VY[Cit]K[dP]P)), the midpoint of cytotoxicity in “in vitro”, the CC50 at 48 h, lay at 103 µM. Moreover, on CXCR4, the IC50 was 1930 nM. Also, the Hemolysis at 100 μM in data set [3] worked out at 0.6%.
On to `CC(C)[C@@H]1NC(=O)[C@H](Cc2ccc3ccccc3c2)NC(=O)[C@H](CCCNC(=N)N)NC(=O)[C@@H](CCCNC(=N)N)NC(=O)[C@H](CCCNC(=N)N)NC(=O)[C@H](C(C)C)NC(=O)[C@H](CCCNC(N)=O)NC(=O)[C@H](CCCNC(=N)N)NC(=O)[C@H](Cc2ccc(O)cc2)NC(=O)[C@@H]2CCCN2C(=O)[C@H]2CCCN2C(=O)[C@H](CCCCN)NC(=O)[C@H](CCCNC(N)=O)NC(=O)[C@H](Cc2ccc(O)cc2)NC1=O` [compound 2] (cyclo(YR[Cit]VR[dR]R[2Nal]VY[Cit]K[dP]P)), for which the CC50 at 48 h in “in vitro” worked out at 97 µM. At CXCR4, the IC50 turned out to be 2830 nM. This compound came in with a Hemolysis at 100 μM in data set [3] of 0.9%.
`CC(C)[C@@H]1NC(=O)[C@H](CCCNC(N)=O)NC(=O)[C@H](CCCNC(=N)N)NC(=O)[C@H](Cc2ccc(O)cc2)NC(=O)[C@@H]2CCCN2C(=O)[C@H]2CCCN2C(=O)[C@H](CCCCN)NC(=O)[C@H](CCCNC(N)=O)NC(=O)[C@H](Cc2ccc(O)cc2)NC(=O)[C@H](C(C)C)NC(=O)[C@H](Cc2ccc3ccccc3c2)NC(=O)[C@H](CCCNC(=N)N)NC(=O)[C@H](CCCNC(=N)N)NC(=O)[C@H]2CCCN2C(=O)CNC(=O)[C@H](CCCNC(=N)N)NC1=O` [compound 45] (cyclo(YR[Cit]VRG[dP]RR[2Nal]VY[Cit]K[dP]P)) showed a CC50 at 48 h in “in vitro” of 132 µM. In addition, in data set [2], the “FIGS % inhibition at 200 nM” value came out at 65.1%. For the same compound, the Hemolysis at 100 μM in data set [3] was 0.4%.
As to `CC(C)[C@@H]1NC(=O)[C@H](Cc2ccc3ccccc3c2)NC(=O)[C@H](CCCNC(=N)N)NC(=O)[C@H](CCCNC(=N)N)NC(=O)[C@@H]2CCCN2C(=O)[C@H](CCCNC(N)=O)NC(=O)[C@H](CCCNC(=N)N)NC(=O)[C@H](Cc2ccccc2)NC(=O)[C@H](CCCNC(N)=O)NC(=O)[C@H](CCCNC(=N)N)NC(=O)[C@H](Cc2ccc(O)cc2)NC(=O)[C@@H]2CCCN2C(=O)[C@H]2CCCN2C(=O)[C@H](CCCCN)NC(=O)[C@H](CCCNC(N)=O)NC(=O)[C@H](Cc2ccc(O)cc2)NC1=O` [compound 20] (cyclo(YR[Cit]FR[Cit]PRR[2Nal]VY[Cit]K[dP]P)), the CC50 at 48 h in the data set “in vitro” was 85 µM. The IC50 at CXCR4 was 3730 nM. The same compound displayed a Hemolysis at 100 μM in data set [3] of 0.2%.
For the compound `CC(C)[C@@H]1NC(=O)[C@H](Cc2ccc3ccccc3c2)NC(=O)[C@H](CCCNC(=N)N)NC(=O)[C@H](CCCNC(=N)N)NC(=O)[C@H]2CCCN2C(=O)[C@H](CCCNC(N)=O)NC(=O)[C@H](CCCNC(=N)N)NC(=O)[C@H](C(C)C)NC(=O)[C@H](CCCNC(N)=O)NC(=O)[C@H](CCCNC(=N)N)NC(=O)[C@H](Cc2ccc(O)cc2)NC(=O)[C@@H]2CCCN2C(=O)[C@H]2CCCN2C(=O)[C@H](CCCCN)NC(=O)[C@H](CCCNC(N)=O)NC(=O)[C@H](Cc2ccc(O)cc2)NC1=O` [compound 25] (cyclo(YR[Cit]VR[Cit][dP]RR[2Nal]VY[Cit]K[dP]P)), the CC50 at 48 h in the data set “in vitro” came to 108 µM. Moreover, the IC50 on CXCR4 was 1000 nM. For the same compound, the Hemolysis at 100 μM in data set [3] came out at 0%.
In “in vitro”, `CC(C)[C@@H]1NC(=O)[C@H](Cc2ccc3ccccc3c2)NC(=O)[C@H](CCCNC(=N)N)NC(=O)[C@H](CCCNC(=N)N)NC(=O)[C@H]2CCCN2C(=O)[C@H](C(C)C)NC(=O)[C@H](CCCNC(=N)N)NC(=O)[C@H](Cc2ccccc2)NC(=O)[C@H](CCCNC(N)=O)NC(=O)[C@H](CCCNC(=N)N)NC(=O)[C@H](Cc2ccc(O)cc2)NC(=O)[C@@H]2CCCN2C(=O)[C@H]2CCCN2C(=O)[C@H](CCCCN)NC(=O)[C@H](CCCNC(N)=O)NC(=O)[C@H](Cc2ccc(O)cc2)NC1=O` [compound 21] (cyclo(YR[Cit]FRV[dP]RR[2Nal]VY[Cit]K[dP]P)) returned a CC50 at 48 h of 114 µM. The IC50 on CXCR4 worked out at 550 nM. Further, the Hemolysis at 100 μM in data set [3] was 0.6%.
`CC(C)[C@@H]1NC(=O)[C@H](CCCNC(N)=O)NC(=O)[C@H](CCCNC(=N)N)NC(=O)[C@H](Cc2ccc(O)cc2)NC(=O)[C@@H]2CCCN2C(=O)[C@H]2CCCN2C(=O)[C@H](CCCCN)NC(=O)[C@H](CCCNC(N)=O)NC(=O)[C@H](Cc2ccc(O)cc2)NC(=O)[C@H](Cc2ccccc2)NC(=O)[C@H](Cc2ccc3ccccc3c2)NC(=O)[C@H](CCCNC(=N)N)NC(=O)[C@H](CCCNC(=N)N)NC(=O)[C@H](CCCNC(=N)N)NC1=O` [compound 4] (cyclo(YR[Cit]VRRR[2Nal]FY[Cit]K[dP]P)) displayed a CC50 at 48 h in the data set “in vitro” of 191 µM. The IC50 on CXCR4 turned out to be 2540 nM. This compound registered a Hemolysis at 100 μM in data set [3] of 0.7%.
For `CC(C)[C@@H]1NC(=O)[C@H](CCCNC(=N)N)NC(=O)[C@H](Cc2ccccc2)NC(=O)[C@H](CCCNC(N)=O)NC(=O)[C@H](CCCNC(=N)N)NC(=O)[C@H](Cc2ccc(O)cc2)NC(=O)[C@@H]2CCCN2C(=O)[C@H]2CCCN2C(=O)[C@H](CCCCN)NC(=O)[C@H](CCCNC(N)=O)NC(=O)[C@H](Cc2ccc(O)cc2)NC(=O)[C@H](Cc2ccccc2)NC(=O)[C@H](Cc2ccc3ccccc3c2)NC(=O)[C@H](CCCNC(=N)N)NC(=O)[C@H](CCCNC(=N)N)NC(=O)[C@@H]2CCCN2C1=O` [compound 28] (cyclo(YR[Cit]FRVPRR[2Nal]FY[Cit]K[dP]P)), in that order: 117 µM, 2680 nM and 0.9%.
In turn, `N=C(N)NCCC[C@@H]1NC(=O)[C@H](Cc2ccccc2)NC(=O)[C@H](CCCNC(N)=O)NC(=O)[C@H](CCCNC(=N)N)NC(=O)[C@H](Cc2ccc(O)cc2)NC(=O)[C@@H]2CCCN2C(=O)[C@H]2CCCN2C(=O)[C@H](CCCCN)NC(=O)[C@H](CCCNC(N)=O)NC(=O)[C@H](Cc2ccc(O)cc2)NC(=O)[C@H](Cc2ccccc2)NC(=O)[C@H](Cc2ccc3ccccc3c2)NC(=O)[C@H](CCCNC(=N)N)NC(=O)[C@H](CCCNC(=N)N)NC(=O)[C@H]2CCCN2C(=O)CNC1=O` [compound 38] (cyclo(YR[Cit]FRG[dP]RR[2Nal]FY[Cit]K[dP]P)) returned a CC50 at 48 h in “in vitro” of 348 µM. For the same compound, the IC50 on CXCR4 amounted to 720 nM. The Hemolysis at 100 μM in data set [3] is 0.3%.
